According to patent US20130123355A1, “Fatty acids and metal ions compositions and uses thereof” (priority 2011, published 2013):

Assays:
rats = assay: T-maze test (forced alternation or left-right discrimination task); format: in vivo; conditions: diet
Method: Mg-DHA composition is provided as supplement in standard rat feed. On an average, rats consume about 50 mg/Kg/day of elemental Mg, on a feeding schedule so as to maintain 85% of its free-feeding weight. In the control group, rats are fed either DHA or magnesium citrate (Mg Citrate) supplemented diet on schedule similar to test group. After habituation to the apparatus and pre-training, each rat undergoes 4 trials of standard T-maze test (Shoji et al, J. Vis. Exp. (60), e3300, DOI: 10.3791/3300 (2012)) on day 1 or day 21 of Mg-DHA, Mg Citrate, or DHA feeding. Rats are subject to either forced alternation task or left-right discrimination task. Behaviors in the T-maze apparatus is recorded and statistically analyzed by two way repeated measures analysis of variance. […] In another set of experiments, rats fed with DHA, Mg Citrate, or Mg-DHA for 21 days are subject to novel-object-location (NOL) tests.
Mg-DHA composition is provided as supplement in standard rat feed. On an average, rats consume about 50 mg/Kg/day of elemental Mg, on a feeding schedule so as to maintain 85% of its free-feeding weight. In the control group, rats are fed DHA-LysoPC or Mg Citrate supplemented diet on schedule similar to test group. After habituation to the apparatus and pre-training, each rat undergoes 4 trials of standard T-maze test (Shoji et al, J. Vis. Exp. (60), e3300, DOI: 10.3791/3300 (2012)) on day 1 or day 21 of Mg-DHA-LysoPC, Mg Citrate or DHA-LysoPC feeding. Rats are subjected to either forced alternation task or left-right discrimination task. Behaviors in the T-maze apparatus is recorded and statistically analyzed by two way repeated measures analysis of variance. […] In another set of experiments, rats fed with Mg Citrate, DHA-LysoPC, or Mg-DHA-LysoPC for 21 days are subjected to novel-object-location (NOL) tests.
Mg-EPA composition is provided as supplement in standard rat feed. On an average, rats consume about 50 mg/Kg/day of elemental Mg, on a feeding schedule so as to maintain 85% of its free-feeding weight. In the control group, rats are fed EPA or Mg Citrate supplemented diet on scheduled similar to test group. After habituation to the apparatus and pre-training, each rat undergoes 4 trials of standard T-maze test (Shoji et al, J. Vis. Exp. (60), e3300, DOI: 10.3791/3300 (2012)) on day 1 or day 21 of Mg-EPA, Mg Citrate, or EPA feeding. Rats are subjected to either forced alternation task or left-right discrimination task. Behaviors in the T-maze apparatus is recorded and statistically analyzed by two way repeated measures analysis of variance. […]
Zn-DHA composition is provided as supplement in standard rat feed. […] Behaviors in the T-maze apparatus is recorded and statistically analyzed by two way repeated measures analysis of variance. […]

human subjects = assay: Montreal Cognitive Assessment and Mini-Mental State Examination; format: in vivo
Method: Mg-DHA composition is prepared and formulated as capsules to provide a daily dose of 150 mg of elemental magnesium. The human subjects are divided into control and test groups and provided DHA, Mg Citrate (equivalent to 150 mg of elemental magnesium) or Mg-DHA capsules for 30 consecutive days. On day 1 and day 30, two cognitive tests, Montreal Cognitive Assessment and Mini-Mental State Examination (Int J Geriatr Psychiatry. 2010 February; 25(2):111-20) are administered.
Mg-DHA-LysoPC composition is prepared and formulated as capsules to provide a daily dose of 150 mg of elemental magnesium. The human subjects are divided into control and test groups and provided either DHA-LysoPC, Mg Citrate (equivalent to 150 mg of elemental magnesium), Mg-DHA-LysoPC capsules for 30 consecutive days. On day 1 and day 30, two cognitive tests, Montreal Cognitive Assessment and Mini-Mental State Examination (Int J Geriatr Psychiatry. 2010 February; 25(2):111-20) are administered.
Mg-EPA composition is prepared and formulated as capsules to provide a daily dose of 150 mg of elemental magnesium. The human subjects are divided into control and test groups and provided EPA, Mg Citrate (equivalent to 150 mg elemental magnesium), or Mg-EPA capsules for 30 consecutive days. On day 1 and day 30, two cognitive tests, Montreal Cognitive Assessment and Mini-Mental State Examination (Int J Geriatr Psychiatry. 2010 February; 25(2):111-20) are administered.
Zn-DHA or zinc gluconate composition is prepared and formulated as capsules to provide 30 mg of elemental zinc. The human subjects are divided into control and test groups and provided DHA, zinc gluconate, or Zn-DHA capsules, 3 times a day for 30 consecutive days. On day 1 and day 30, two cognitive tests, Montreal Cognitive Assessment and Mini-Mental State Examination (Int J Geriatr Psychiatry. 2010 February; 25(2):111-20) are administered.
Zn-DHA or zinc gluconate composition is prepared and formulated as capsules to provide 30 mg of elemental zinc. The human subjects are divided into control and test groups and provided DHA-LysoPC, zinc gluconate, or Zn-DHA-LysoPC capsules, 3 times a day for 30 consecutive days. On day 1 and day 30, two cognitive tests, Montreal Cognitive Assessment and Mini-Mental State Examination (Int J Geriatr Psychiatry. 2010 February; 25(2):111-20) are administered.
Zn-DHA or zinc gluconate composition is prepared and formulated as capsules to provide a daily dosage of 30 mg of elemental zinc. The human subjects are divided into control and test groups and provided EPA, zinc gluconate, or Zn-EPA capsules for 30 consecutive days. On day 1 and day 30, two cognitive tests, Montreal Cognitive Assessment and Mini-Mental State Examination (Int J Geriatr Psychiatry. 2010 February; 25(2):111-20) are administered.

[1] = about 50 mg/Kg/day elemental Mg, day 1 or day 21, compared with the fatty acid alone or Mg Citrate
[2] = capsules, 150 mg elemental magnesium daily for 30 days, compared with the fatty acid alone or Mg Citrate
[3] = about 1 mg/kg body weight/day elemental Zn, day 1 or day 21, compared with the fatty acid alone or zinc gluconate
[4] = capsules providing 30 mg elemental zinc, 30 consecutive days, compared with the fatty acid alone or zinc gluconate

Structure (SMILES)	working and reference memory (rats; [1])	cognitive tests (Montreal Cognitive Assessment, Mini-Mental State Examination) (human subjects; [2])	working and reference memory (rats; [3])	cognitive tests (Montreal Cognitive Assessment, Mini-Mental State Examination) (human subjects; [4])
CC/C=C\C/C=C\C/C=C\C/C=C\C/C=C\C/C=C\CCC(=O)[O-].CC/C=C\C/C=C\C/C=C\C/C=C\C/C=C\C/C=C\CCC(=O)[O-].[Mg+2] [Mg-DHA]	statistically significant increase	statistically significant improvement	–	–
CC/C=C\C/C=C\C/C=C\C/C=C\C/C=C\CCCC(=O)[O-].CC/C=C\C/C=C\C/C=C\C/C=C\C/C=C\CCCC(=O)[O-].[Mg+2] [Mg-EPA]	statistically significant increase	statistically significant improvement	–	–
CC/C=C\C/C=C\C/C=C\C/C=C\C/C=C\C/C=C\CCC(=O)[O-].CC/C=C\C/C=C\C/C=C\C/C=C\C/C=C\C/C=C\CCC(=O)[O-].[Zn+2] [Zn-DHA]	–	–	statistically significant increase	statistically significant improvement
CC/C=C\C/C=C\C/C=C\C/C=C\C/C=C\CCCC(=O)[O-].CC/C=C\C/C=C\C/C=C\C/C=C\C/C=C\CCCC(=O)[O-].[Zn+2] [Zn-EPA]	–	–	statistically significant increase	statistically significant improvement
